Reference: patent US20110129844A1, “Use of Activating Transcription Factor-2 (ATF2) for Detecting Skin Cancer” (priority 2007, published 2011)
Read-outs that look alike come from different tables or passages of the source.

Tests used:
epidermis = details: three topical applications of TPA at 10 μg each; for thickness of hyperplastic epidermis (mean±SD): 18 hrs post treatment; for thickness of epidermal layers: after 48 hrs
Method: Measurement of Hyperplasia. Hyperplasia was assessed in six WT and K14.ATF2^f/f mice (8-week-old) after treatment with acetone or TPA at the indicated time points. The thickness of the epidermis (μm) was measured using an image system (SlideBook-Intelligent imaging) in 15 fields per section.
In order to determine the possible effect of ATF2 disruption on keratinocyte proliferation possible changes in epidermal hyperplasia was assessed.

basal epidermal cells = assay: BrdU incorporation in basal keratinocytes after TPA treatment; type: in vivo, mice
Method: 5-bromo-2-deoxyuridine (BrdU) incorporation. 8-week-old K14.ATF2^f/f mice and WT mice were shaved 2 days before treatment with TPA (10 μg/200 μl acetone). BrdU (0.1 mg/g body weight) was injected intraperitoneally 1 h before the mice were sacrificed. The mice were euthanized 7, 24 and 48 h after six TPA treatments and their dorsal skins were removed, fixed in formalin and processed for paraffin embedding. Immunohistochemical staining was performed with a monoclonal anti-BrdU antibody (Sigma Aldrich, 1:100), which was applied to each section overnight at 4° C. after masking mouse IgG according to the protocol of the M.O.M. kit. […] BrdU positive and negative basal cells were counted in three to five randomly selected areas of each skin section (3-4 sections per mouse) and the mean percentage of BrdU-positive cells and standard deviation (s.d.) for each treatment group were determined.
Induced DNA synthesis in basal epidermal cells of TPA-treated K14.ATF2^f/f mice. In light of the enhanced hyperplastic responses seen in the epidermis of K14.ATF2^f/f mice, possible changes in the rate of keratinocyte proliferation, which could account for the increased hyperplasia, were assessed. BrdU labeling was carried out to quantify DNA synthesis in basal keratinocytes. […]

Compound: Cc1c2ccccc2c(C)c2c1ccc1ccccc12 [DMBA, 7,12-dimethylbenz[a]anthracene]
- mice having developed tumors (epidermal keratinocytes; mouse, in vivo): 50%
- mice that had developed tumors (epidermal keratinocytes; mouse, in vivo): about 40%
- papilloma development (epidermal keratinocytes; mouse, in vivo): did not result in papilloma development
- time at which papillomas started to appear after DMBA treatment (epidermal keratinocytes; mouse, in vivo): around 17 weeks

Compound: CCCCCCCCCCCCCC(=O)O[C@@H]1[C@@H](C)[C@@]2(O)[C@@H](C=C(CO)C[C@]3(O)C(=O)C(C)=C[C@@H]23)[C@H]2C(C)(C)[C@]12OC(C)=O [TPA]
- thickness of hyperplastic epidermis (mean±SD) (epidermis; K14.ATF2f/f mice): 42±3.2 μm
- thickness of epidermal layers (epidermis; K14.ATF2f/f mice): 102±2.8 μm
- thickness of hyperplastic epidermis (mean±SD) (epidermis; WT mice): 21±2.6 μm
- thickness of epidermal layers (epidermis; wild-type mice): 45±2.3 μm
- percentage of BrdU-labeled basal cells (basal epidermal cells; K14.ATF2f/f mice, 24 h after TPA treatment): 32±3.0%
- percentage of BrdU-labeled basal cells (basal epidermal cells; wild-type mice, 24 hours after TPA treatment): 15±3%
- papilloma development (epidermal keratinocytes; DMBA or TPA alone, WT or ATF2 mutant mice): did not result in papilloma development
